assay: Human HepG2 cell viability assay in 384 well format; type: toxicity, cell-based; design: dose 125 nL, time 70.5 hour; concentration not given beside the values; conditions: HepG2 cells, read-out: Inhibition

| Structure (SMILES) | cytotoxicity at 70.5 h |
| --- | --- |
| CN(C)c1cc(CNC(=O)c2ccccc2S(C)(=O)=O)ccn1 | 0.46% |
| N#Cc1cnc(NC2CCN(C(=O)C3CC3)CC2)c(Cl)c1 | 0.703% |
| CCc1nnc2n1CCN(C(=O)c1cn(-c3ccccc3)nn1)C2 | 3.13% |
| CCc1nsc(N2CCN(CC(=O)NCc3cccnc3)CC2)n1 | -5.18% |
| Cc1nn(C)c2nc(N(Cc3ccncc3)CC3CCCO3)sc12 (configuration not stated) | -5.1% |
| CCc1nccn1CCCNC(=O)CN1CCN(c2ncccn2)CC1 | -7.13% |
| CCc1cc(N[C@H]2CCC[C@H]2CO)n2nc(C)c(C)c2n1 | -2.92% |
| CNC(=O)Cc1noc(-c2cc3c(s2)CCC(C)C3)n1 (configuration not stated) | -3.99% |
| CS(=O)(=O)NC[C@]12COC[C@H]1CN(C(=O)Cc1ccccc1F)C2 | -1.03% |
| Cc1cnc(CNC(=O)[C@@]23CCO[C@@H]2CCN(C2CCCC2)C3)cn1 | -1.73% |
| CC(C)c1sc(Cl)nc1C(=O)NCc1ccncc1 | 19.6% |
| O=C(CSc1ccncc1)NC1CC(=O)N(CCc2ccccc2)C1 (configuration not stated) | -8.43% |
| CCS(=O)(=O)N1C[C@H]2CCC[C@@]2(COc2ccccn2)C1 | -21.9% |
| Cc1cc(C)n(CC(=O)N2CCCC(c3cc4cccnc4[nH]3)C2)n1 (configuration not stated) | -3.24% |
| Cc1nccc(N[C@H]2CN(C(=O)C3(C#N)CCOCC3)C[C@@H]2C(C)C)n1 | 12% |
| CSCCc1nc(-c2ccc3c(c2)OCO3)n(C)n1 | -4.21% |
| Cc1cccnc1C(=O)N1CCCC(c2[nH]ncc2S(C)(=O)=O)C1 (configuration not stated) | 0.897% |
| O=C(c1cnc(C2CC2)s1)N1CCCCC1Cn1cccn1 (configuration not stated) | 0.664% |
| CCOc1ncccc1NC(=O)N1CCC(n2cncn2)CC1 | -8.07% |

| Structure (SMILES) | cytotoxicity at 70.5 h |
| --- | --- |
| Cc1cc(C)n(CC2CCCN2C(=O)c2ccnc(N(C)C)c2)n1 (configuration not stated) | 10.6% |
| CC(=O)Nc1nc(C(=O)NCc2ccc(N3CCOCC3)nc2)cs1 | 14.9% |
| Cc1occc1C(=O)N1CC(C(=O)N2CCOCC2)C2(CCOCC2)C1 (configuration not stated) | 6.2% |
| O=S(=O)(NCCC(O)c1cccs1)c1c(F)cccc1F (configuration not stated) | -14.6% |
| Cc1ccccc1CS(=O)(=O)c1nnc(N2CCOCC2)s1 | 8.66% |
| Cn1ccnc1CNC[C@H]1Cn2cc(-c3ccccc3)nc2CO1 | -8.01% |
| Cc1c(C(=O)NCc2ccnc(OCC(F)(F)F)c2)cnn1C | -4.98% |
| Cc1cc(C(=O)N2Cc3ccccc3OC3(CCOCC3)C2)nc(N)n1 | -4.81% |
| CC[C@H]1CN(S(=O)(=O)c2ccc(OC)cc2)CC[C@H]1CC(=O)O | -9.14% |
| COc1ccc(Oc2ccc(C(F)(F)F)cn2)cc1CN1CCCC1 | -11.6% |
| CCC(=O)c1ccc(Br)cc1NN1c2cc(Br)ccc2C(=O)C1(C)OC (configuration not stated) | 13.3% |
| O=C(O)c1ccccc1-c1ccc(CN2CCOCC2)cn1 | -7.9% |
| O=C1OCCN1CCN1CCCN(Cc2ccccc2F)CC1 | -4.26% |
| CCC(O)CNc1nccc(-c2ccc(C)nc2C)n1 (configuration not stated) | -14.6% |
| CC(C)c1cccc(-n2cc(O)c(C(N)=O)n2)c1 | 25.8% |
| CNS(=O)(=O)c1cccc(C(C)NCc2ccccc2OC)c1 (configuration not stated) | -4.76% |
| Cc1cccc(NC(=O)C(C)Nc2cccc(CN3CCOC3=O)c2)c1 (configuration not stated) | -7.24% |
| c1cc(-c2cnc(NC3CC3)nc2[C@H]2CCCO2)ccn1 | -7.2% |
| c1cc(NCc2cscn2)cc(OCCN2CCCCC2)c1 | -2.11% |

| Structure (SMILES) | cytotoxicity at 70.5 h |
| --- | --- |
| CCn1cc(CN2CCCN(C3Cc4ccccc4C3)CC2)c(C)n1 | 24.3% |
| Cc1cnn(CC2CCCN2c2ncnc3ccsc23)c1 (configuration not stated) | 5.5% |
| COC1COC2(CCN(Cc3ccc4c(c3)OCO4)CC2)C1 (configuration not stated) | 0.98% |
| c1csc(CN2CCO[C@H]3[C@H](OCC4CCCC4)CC[C@@H]32)n1 | -1.77% |
| O=C(O)c1ccc(C2CCCN(C(=O)c3ccc[nH]3)C2)cc1 (configuration not stated) | -6.26% |
| CCC(Nc1cccc(OC)c1)C(=O)N(CCOC)Cc1cnn(C)c1 (configuration not stated) | -1.31% |
| Cc1noc(C2CCN(C(=O)CCNc3ncccn3)CC2)n1 | -1.06% |
| O=C1CC(c2cccs2)c2sc(C(=O)O)c(-c3ccccc3)c2N1 (configuration not stated) | -9.97% |
| Cc1cccc(N(CCC(N)=O)CC(=O)Nc2cc(Cl)ccc2Cl)c1 | -5.69% |
| Cc1ccc(N2CCO[C@H]3CN(Cc4ccncc4)C[C@H]32)nn1 | -8.56% |
| CCS(=O)(=O)c1ccccc1C(=O)NCC1Cc2ccccc2O1 (configuration not stated) | -3.88% |
| COCC(=O)N[C@H](C)c1onc(-c2ccc(Cl)cc2)c1C(=O)O | -1.96% |
| Cc1nn(C)c2c(=O)n(Cc3ccccc3)nnc12 | -13.5% |
| CCCc1nnc(N2CCC(N3CCCCCC3)CC2)o1 | -15.8% |
| O=C(O)C(c1ccc2c(c1)OCO2)N1CCC(O)(c2cccnc2)CC1 (configuration not stated) | 0.616% |
| CCN(CC)c1ccc2ccc(C(=O)O)cn12 | -5.88% |
| Cc1ccc(CNC(=O)NC2CCCN(c3ncccn3)C2)cn1 (configuration not stated) | -10% |
| CCc1nnsc1C(=O)N1CCCN(Cc2nccn2C)CC1 | -21.7% |
| N#Cc1cc(NC(=O)c2ccccc2)ccc1N1CCC(O)CC1 | 1.64% |
